The values that follow come from patent EP0384661A1, “Antialgal compositions comprising diphenylethers” (ROHM AND HAAS COMPANY, priority 1989, dated 1990).

Values after ≈ are worked out from the molar mass of the structure shown. Where a name gives a salt, the structure may show the parent alone.

In one test the test system is Anabaena flos-aquae. In words: MIC microtiter plate assay. The test is classed as cell-based. As to conditions: Dolichospermum flos-aquae; growth/no-growth after 14 or 21 days, 25°C. On the procedure:
(§1) Efficacy studies were conducted on a variety of microorganisms with oxyfluorfen. Minimum Inhibitory Concentration (MIC) studies were conducted using microtiter plate assays. In this method, a wide range of concentrations was tested by preparing two-fold serial dilutions of the compound in 96-well plastic microtiter plates. All liquid media transfers were performed with calibrated single or multichannel digital pipetters. Stock solutions of compounds were prepared in appropriate solvents and dispensed to the growth medium. All subsequent dilutions in plates were made using the desired growth medium. The total volume of liquid in each well was 100 ul. The pure cultures used in this study were obtained from the Culture Collection of Algae at the University of Texas at Austin (UTEX). The mixed culture of algae was obtained from a cooling tower biofilm and maintained in liquid medium; microorganisms used as inocula were cultured in shaken liquid culture (50 ml of Bristol's medium, pH 7.0, 25°C); Journal of Phycology, 23s: 1-47, 1987) for one week or as needed to attain a desired cell mass. The cultures were then inoculated into the microtiter plates using a 96-prong multiple inoculator (5 µl inoculum); each well received a standard suspension of biomass (5% inoculum). Plates were incubated at 25°C under constant illumination (500 ft candles). The extent of growth was determined under low magnification with the aid of a microtiter plate reader. The growth in each cell was monitored periodically and growth/no-growth was recorded after 14 or 21 days. […] Following the evaluation procedure of Example 3, compounds according to the following structural formula, with X and Y substituents according to Table 4A, were evaluated with the results shown in Table 4B. [drawing 4]

The subject of test [1] is Mixed Cooling Tower Culture. The test can be described thus: MIC microtiter plate assay. It is filed as cell-based, mixed culture of algae. The conditions noted are these: growth/no-growth after 14 or 21 days, 25°C. As for the experimental part: as §1
In test [2] the test system is 10 differents types of algae. As to conditions: all levels tested; 10 types of algae; cited from earlier work.

Turning to `Oc1cccc(Oc2ccc(C(F)(F)F)cc2Cl)c1` [4A comparative], the MIC (as a rule, the lowest concentration found to suppress growth) is 3.1 µg/mL (≈ 10.7 µM) in the test with Anabaena flos-aquae and 1.6 µg/mL (≈ 5.54 µM) in test [1]. With `CC(=O)Oc1cccc(Oc2ccc(C(F)(F)F)cc2Cl)c1` [4B comparative], the figures for the MIC (in the test with Anabaena flos-aquae; in test [1]) were 16 µg/mL (≈ 48.4 µM) and 8 µg/mL (≈ 24.2 µM), respectively.

Take `CC(=O)Oc1cc(Oc2ccc(C(F)(F)F)cc2Cl)ccc1[N+](=O)[O-]` [4C comparative]: the results for the MIC (against Anabaena flos-aquae; in test [1]) were 12.5 µg/mL (≈ 33.3 µM) and 0.25 µg/mL (≈ 0.665 µM), respectively.

For `O=[N+]([O-])c1ccc(Oc2ccc(C(F)(F)F)cc2Cl)cc1O` [4D comparative], the values for the minimum inhibitory concentration (MIC) (against Anabaena flos-aquae; in test [1]) were 12.5 µg/mL (≈ 37.5 µM) and 0.06 µg/mL (≈ 0.18 µM), respectively. As to `O=C(O)c1cc(Oc2ccc(C(F)(F)F)cc2Cl)ccc1[N+](=O)[O-]` [4E comparative], the minimal inhibitory concentration (MIC) was over 50 µg/mL with Anabaena flos-aquae and 12.5 µg/mL (≈ 34.6 µM) in test [1]. `CCOC(=O)COC(=O)c1cc(Oc2ccc(C(F)(F)F)cc2Cl)ccc1[N+](=O)[O-]` [4F comparative] returned an MIC in test [1] of 1 µg/mL (≈ 2.23 µM). In test [1], `CCOC(=O)C(C)Oc1cc(Oc2ccc(C(F)(F)F)cc2Cl)ccc1[N+](=O)[O-]` (stereo not shown) [Compound 4G] came in with an MIC of 0.25 µg/mL (≈ 0.576 µM). On to `O=C(O)c1cc(Oc2ccc(C(F)(F)F)cc2Cl)ccc1[N+](=O)[O-]` [acifluorfen, 2-chloro-4-trifluoromethylphenyl-3′-carboxy-4′-nitrophenylether, sodium salt], for which the effectiveness on algae result in test [2] is “ineffective at all levels tested”.
